Experimental findings from patent publication US9981983B2, “Thienopyranones as kinase inhibitors” (SignalRx Pharmaceuticals, Inc., priority 2008, dated 2018) are described below.

Format in all cases: cell-based
The subject of assay [1] is BXPC3 (Pancreas). In words: Cell proliferation MTS assay, BXPC3. The settings on record: Homo sapiens, BXPC-3, 72 hours. The procedure: (§1) All cell lines were obtained from ATCC and cultured and plated according to ATCC recommendations. Cells were cultured in complete culture media containing 10% heat-inactivated fetal bovine serum (FBS, Mediatech, Inc.). For adherent cell lines, once cells reached 70% confluency, they were trypsinized and resuspended in phenol red free RPMI media (Mediatech, Inc.) plus 10% heat-inactivated FBS (assay buffer) and 100 μL aliquots were plated into each well of 96-well microtiter plates at a final density of 1,000-2,000 cells/well. Cells were incubated overnight at 37° C. in 5% CO2, and treated with test compounds on the next day. For suspension cell lines, cells were resuspended in assay buffer, plated into 96-well microtiter plates at a density of 10^4-10^5 cells/well/100 μL, and treatment was started on the same day. Cells were treated with vehicle (DMSO) and test compounds for 72 hours at concentration of 100, 70, 40, 20, 10, 5, 2.5, 1.25, 0.5 and 0.2 μM in four replicates at 37° C. in 5% CO2.

The subject of assay [2] is K562 (CML). In words: Cell proliferation MTS assay, K562. As to conditions: Homo sapiens, 72 hours. The method, then: as §1
For assay [3], the system named is MCF7 breast cancer cells. In words: Mammosphere cancer stem cell inhibition assay. The settings on record: first experiment; for number of mammospheres: control 38±4. The method, then:
A mammosphere cancer stem cell inhibition assay was set up using literature methods (T. M. Phillips et al. J. Natl. Cancer I. 2006, 98, 1777-1785, “Mammalian target of rapamycin contributes to the acquired apoptotic resistance of human mesothelioma multicellular spheroids”) using a subset of MCF7 breast cancer cells that posses the ability to evade anchorage independent apoptosis. Commercially available MCF7 breast cancer cells were cultured in MEM supplemented with 0.01 mg/mL of bovine insulin and 10% FBS at 37° C. in humidified atmosphere (5% CO2). Floating cells in the 2-day cultures were collected, washed, and resuspended in DMEM-F12 (50:50) supplemented with 0.4% BSA, 5 μg/mL bovine insulin, 20 ng/mL bFGF, and 10 ng/mL EGF. Cells were then passed through a […] sieve to remove any cell clusters and adjusted to a density of 10,000 cells/mL. Approximately 500 cells were plated in quadruplicate in a sterile poly-HEMA-treated 96-well plate. Cells were then treated with either control or test solutions consisting of the kinase inhibitor Lapatinib (1 μM), Cpd 28 (1 or 10 μM), Cpd 55 (1 or 10 μM), The numbers of mammospheres (clusters of cells numbering more than 4 or 5 per cluster) were then counted after 5-7 days.

Assay [4] concerns H1299 (Lung). Description: Cell proliferation MTS assay, H1299. As to conditions: Homo sapiens, NCI-H1299, 72 hours. The procedure: as §1
Background: Tetrazolium assays rely on reduction of a dye to a coloured formazan, in cell work by metabolically active cells.

The test system of assay [5] is pAKT in BT-474 cells. Description: pAKT status DM50, BT-474. The settings on record: Homo sapiens; BT-474, breast cancer. The procedure: (§2) PC3 cells were obtained from the American Type Culture Collection (ATCC, Manassas, Va., Cat.# CRL-1435). Two million cells from the prostate cancer line PC3 were placed into 6 cm culture dishes and allowed to grow in complete RPMI 1640 media (Invitrogen, Carlsbad, Calif., Cat.#22400-105) with 10% fetal bovine serum (Invitrogen, Carlsbad, Calif., Cat.#10438-026). After this time period the cells were serum starved for 5 hours followed by application of the test compound. Test compound was added as a DMSO (dimethyl sulfoxide) solution such that the final DMSO concentration in the cell media was less than or equal to 0.2% by volume After 30 minutes of exposure the growth factor stimulant, human IGF-1 (PeproTech, Inc., Rocky Hill, N.J., Cat.#100-11), was added to a final concentration of 0.1 μg/ml in each well. After 30 minutes of IGF-1 exposure, cells were removed from the media and cell lysates were prepared using RIPA Lysis buffer (Upstate, Lake Placid, N.Y., Cat.#20-188), keeping on ice. The pAKT serine 473 level was measured in duplicate samples of the cell lysates using commercially available assays such as the Pathscan® Sandwich ELISA kit for Ser473 pAKT (Cell Signaling, Danvers, Mass., Cat.#7160). A SpectraMax Plus spectrophotometric plate reader (Molecular Devices, Sunnydale, Calif.) was used to measure the optical density signal for pAKT at 450 nm (OD450 nm). The pAKT OD450 nm readings were normalized by total protein amount in the cell lysates determined by standard methods.
(§3) Concentrations of test compounds required to inhibit IGF stimulated pAKT levels to 50% of maximum levels in PC3 cells (termed DM50 for decreased maximum 50%) were calculated by inputting the dose responses in the software package GraphPad Prism4 (GraphPad Software, Inc., San Diego, Calif.).
(§4) Several other cancer cell lines were obtained from ATCC and grown according to the supplier's recommendations and treated with test compounds. DM50 values listed in Table 6 below were obtained by the methods described in Example A: […]

Assay [6] relates to SKMEL2 (Melanoma). Description: Cell proliferation MTS assay, SKMEL2. As to conditions: Homo sapiens, SK-MEL-2, 72 hours. The method, then: as §1
Assay [7] relates to pAKT in 786-O cells. Description: pAKT status DM50, 786-O. The settings on record: Homo sapiens, 786-0, renal cell carcinoma. The method, then: as §2, §3, §4
In assay [8] the test system is MDA-MB468 (Breast). Description: Cell proliferation MTS assay, MDA-MB468. The settings on record: Homo sapiens, MDA-MB-468, 72 hours. The method, then:
as §1

For assay [9], the system named is pAKT in H1299 cells. In words: pAKT status DM50, H1299. The settings on record: Homo sapiens, NCI-H1299; H1299, non-small cell lung cancer. The procedure: as §2, §3, §4

Consider `O=c1cc(N2CCOCC2)oc2c(-c3ccc4c(c3)OCCO4)csc12` [Compound 28, 3-(2,3-dihydrobenzo[b][1,4]dioxin-6-yl)-5-morpholino-7H-thieno[3,2-b]pyran-7-one], for which the IC50 (commonly the concentration that inhibits the measured activity by half) in assay [1] turned out to be 3.35 µM; in assay [2], 3.2 µM; in assay [4], 2430 nM; in assay [5] it was 307 nM; in assay [6], 5.2 µM; in [7], 1370 nM. Also, the results for the IC50 in [8] and in assay [9] were 2710 nM and 886 nM, respectively. The “inhibition of mammosphere production versus control” value in assay [3] (1 μM) is recorded as “approximately 60%”; in assay [3] (10 μM), “approximately 88%”. In addition, the number of mammospheres in [3] (1 μM) was 15±2 mammospheres; in assay [3] (10 μM), 5±1 mammospheres.
